# Assay results taken from US11510931B2, “Compositions and methods for treating ophthalmic conditions” (MEDICON PHARMACEUTICALS, INC., priority 2016, dated 2022).
# Experiments:
# MMPs = experiment: General MMP activity in rabbit cornea (FRET peptide); assay type: in vivo
# Description: The general activity of MMPs was determined in the corneas of three groups of rabbits. This MMP activity assay employs a fluorescence resonance energy transfer (FRET) peptide as a generic MMP indicator. Rabbits were treated with PS 1.6% or ketorolac 0.5% eye drops topically applied to their eyes or were not treated (naïve group). Results in relative fluorescence units (RFU)/mg protein (mean±SEM). Naïve=1,328±123; PS=749±218; Ketoroloac=1,272±106 (p<0.03 vs PS).
# In an acute experiment, naïve rabbits were treated with either PS or ketorolac (both administered topically) for 1 h and determined the activity of MMP in the cornea. This assay determines the activity of MMPs collectively in a given tissue.
# TGF-β = TGF-β in culture medium of human conjunctival cells (ELISA); assay type: cell-based
# Description: Culture media were harvested 24 h later and the levels of TGF-β, IL-6 and IL-8 were determined by ELISA. Of note, the levels of IL-1β were below the limit of detection.
# [1] = Ocular biodistribution of PS after topical eye drops in New Zealand white rabbits (HPLC); assay type: in vivo, rabbit
# Description: Results: The above PS formulation was administered topically as eye drops to the eyes of New Zealand white rabbits. The levels of PS in ocular tissues 1 h and 3 h later were determined by HPLC. The Table below summarizes the findings:
# Results: The above PS formulation was administered topically as eye drops to the eyes of New Zealand white rabbits. The levels of PS in ocular tissues at 2 h later were determined by HPLC. The table below summarizes the findings.
# Results: PS in this formulation was administered topically to the eyes of New Zealand white rabbits and its biodistribution was determined as above. The Table below summarizes the findings.
# Results: PS in this formulation was administered topically as eye drops to the eyes of New Zealand white rabbits. The biodistribution of PS in ocular tissues at 3 h and 6 h was determined by HPLC. The Table below summarizes the findings.
# Biodistribution of PS after topical administration: PS formulated in nanoparticles as above was administered topically as eye drops to New Zealand white rabbits. The biodistribution of PS in ocular tissues at the indicated time points post administration was determined by HPLC. The Table below summarizes the findings.
# Biodistribution of PS after topical administration: PS in the formulations was administered topically as eye drops to the eyes of New Zealand white rabbits. The levels of PS in ocular tissues at 0.5 h, 1 h and 3 h were determined by HPLC. The Table below summarizes the findings.
# To assess the contribution of the foregoing formulations to the PK/biodistribution of PS in the ocular tissues, a solution of PS in pure propylene glycol (PG) was studied. PG is well tolerated by the eye. A 3.5% PS solution (in PG) as eye drops was administered topically to the eyes of New Zealand white rabbits and its 1-hour biodistribution was determined by HPLC. The Table summarizes the findings.
# [2] = 0.5 h, topical, 0.4% gellan gum in-situ gel, 2.4-3% PS
# [3] = 1 h, topical eye drops, 3.5% PS/16% Vitamin E TPGS/mannitol/boric acid
# [4] = 1 h, topical, 0.4% gellan gum in-situ gel, 2.4-3% PS
# [5] = 1 h, topical, sodium alginate/Tween 80 in-situ gel, 3% PS
# [6] = 2 h, topical, 0.5% gellan gum in-situ gel, 2.4~3% PS
# [7] = 3 h, topical eye drops, 3.5% PS/16% Vitamin E TPGS/mannitol/boric acid
# [8] = 3 h, topical, 0.4% gellan gum in-situ gel, 2.4-3% PS
# [9] = 3 h, topical, Poloxamer 407 in-situ gel, 5.4% PS
# [10] = 3 h, topical, sodium alginate/Tween 80 in-situ gel, 3% PS
# [11] = 5 h, topical, 0.4% gellan gum in-situ gel, 2.4-3% PS
# [12] = 5 h, topical, sodium alginate/Tween 80 in-situ gel, 3% PS
# [13] = 8 h, topical, 0.4% gellan gum in-situ gel, 2.4-3% PS
structure (smiles),measurement,setting,value
"CCOP(=O)(OCC)OCCCCOC(=O)CC1=C(C)/C(=C/c2ccc([S+](C)[O-])cc2)c2ccc(F)cc21 (stereo not drawn) [PS, phosphosulindac]",suppression of the activity of MMPs in the cornea,"MMPs; naïve rabbits, topical, 1 h",43%
same,general activity of MMPs in the corneas,"MMPs; rabbits, PS 1.6% or ketorolac 0.5% eye drops, mean±SEM",749±218 RFU/mg protein
same,TGF-β reduction,"TGF-β; TNF-α-stimulated, PS 1×IC50, media at 24 h",19%
same,TGF-β reduction,"TGF-β; unstimulated levels, PS 1×IC50, not statistically significant",4.7%
same,PS in Aqueous humor,[1]; [2],0.6 µM
same,PS in Conjunctiva,[1]; [2],37.7 µM
same,PS in Cornea,[1]; [2],24.3 µM
same,PS in Aqueous humor,[1]; [3],2.3 µM
same,PS in Choroid,[1]; [3],3.2 µM
same,PS in Conjunctiva,[1]; [3],9.3 µM
same,PS in Cornea,[1]; [3],6.9 µM
same,PS in Iris,[1]; [3],0.7 µM
same,PS in Lacrimal gland,[1]; [3],0.1 µM
same,PS in Lens,[1]; [3],1.8 µM
same,PS in Retina,[1]; [3],2.7 µM
same,PS in Sclera,[1]; [3],2.3 µM
same,PS in Vitreous body,[1]; [3],3.6 µM
same,PS in Aqueous humor,[1]; [4],0.4 µM
same,PS in Conjunctiva,[1]; [4],20.8 µM
same,PS in Cornea,[1]; [4],50.8 µM
same,PS in Aqueous humor,[1]; [5],0.4 µM
same,PS in Conjunctiva,[1]; [5],4.9 µM
same,PS in Cornea,[1]; [5],17.8 µM
same,PS in Aqueous humor,[1]; [6],1.2 µM
same,PS in Conjunctiva,[1]; [6],24.1 µM
same,PS in Cornea,[1]; [6],72.0 µM
same,PS in Aqueous humor,[1]; [7],0.1 µM
same,PS in Choroid,[1]; [7],0.2 µM
same,PS in Conjunctiva,[1]; [7],0.5 µM
same,PS in Cornea,[1]; [7],0.8 µM
same,PS in Iris,[1]; [7],0.9 µM
same,PS in Lacrimal gland,[1]; [7],0.5 µM
same,PS in Lens,[1]; [7],0.1 µM
same,PS in Retina,[1]; [7],0.2 µM
same,PS in Sclera,[1]; [7],0.2 µM
same,PS in Conjunctiva,[1]; [8],0.7 µM
same,PS in Cornea,[1]; [8],1.5 µM
same,PS in Choroid,[1]; [9],0.9 µM
same,PS in Cornea,[1]; [9],45.1 µM
same,PS in Aqueous humor,[1]; [10],0.3 µM
same,PS in Conjunctiva,[1]; [10],2.1 µM
same,PS in Cornea,[1]; [10],5.0 µM
same,PS in Conjunctiva,[1]; [11],1.1 µM
same,PS in Cornea,[1]; [11],1.1 µM
same,PS in Conjunctiva,[1]; [12],2.3 µM
same,PS in Cornea,[1]; [12],1.0 µM
same,PS in Conjunctiva,[1]; [13],0.7 µM
same,PS in Cornea,[1]; [13],1.6 µM
same,PS in Conjunctiva,"[1]; 8 h, topical, sodium alginate/Tween 80 in-situ gel, 3% PS",1.3 µM
same,concentration at 5 h,"[1]; New Zealand white, rabbit, aqueous humor, topical, 3 % PS, 5 h, topical, sodium alginate/Tween 80 in-situ gel, 3% PS, read-out: PS in Aqueous humor",0 µM
same,concentration at 8 h,"[1]; New Zealand white, rabbit, aqueous humor, topical, 3 % PS, 8 h, topical, sodium alginate/Tween 80 in-situ gel, 3% PS, read-out: PS in Aqueous humor",0 µM
same,concentration at 1 h,"[1]; New Zealand white, rabbit, aqueous humor, topical, 3.5 % PS solution (eye drops), 1 h, topical eye drops, 3.5% PS solution in propylene glycol, read-out: PS in Aqueous humor",0.7 µM
same,concentration at 3 h,"[1]; New Zealand white, rabbit, aqueous humor, topical, 5.4 % PS, 3 h, topical, Poloxamer 407 in-situ gel, 5.4% PS, read-out: PS in Aqueous humor",0.3 µM
same,concentration at 6 h,"[1]; New Zealand white, rabbit, aqueous humor, topical, 5.4 % PS, 6 h, topical, Poloxamer 407 in-situ gel, 5.4% PS, read-out: PS in Aqueous humor",0.3 µM
